Molecules are shown by their SMILES. ≈ marks a conversion by molar mass, not a printed value. Like-named read-outs stand apart in the source and are kept apart here. A value given as a limit tells only on which side of the number the result lay.

Data set [1] is described as follows: Vero cell viability. The conditions noted are these: African green monkey, Vero cells; test compounds at 100 µg/mL. Type of data set: cell-based. The text has this:
(§1) TABLE 2 Screening of chemical compounds for anti-RH-GFP efficacy. | column: % viability Vero ^¶

Data set [2] is described as follows: Cytotoxicity analysis on HFF cells (CCK-8). The format is cell-based, human. Conditions: human, human foreskin fibroblasts (HFF) cells; test compounds at 50 µg/mL. The protocol:
(§2) The cytotoxicity of the chemical compounds on human foreskin fibroblasts (HFF) cells was determined by using the cell counting kit-8 (CCK-8) (Dojindo Molecular Technologies, Inc. Japan) according to the manufacturer’s instructions. The compounds were dissolved in dimethyl sulfoxide (DMSO). HFF cells were plated in 96-well plates at a density of 1 × 10^4 cells per well. After a 48-h incubation at 37 °C in a 5% CO2 atmosphere, cells were exposed to various concentrations of tested chemical compounds (1 µg/mL, 5 µg/mL, 10 µg/mL, 25 µg/mL, 50 µg/mL and 100 µg/mL). Culture medium containing the same volume of DMSO was used as a negative control. After 24 h, the surviving cells were determined by adding CCK-8 reagent. Cell viability was measured based on the absorbance at 450 nm after an additional 4-h incubation.

Data set [3] concerns Toxoplasma gondii RH-GFP. Kind of data set: In vitro growth inhibition assay (RH-GFP fluorescence in infected HFF cells). The format is cell-based. Conditions: for inhibition at 50 µg/mL / IC50: Toxoplasma gondii; for inhibition at 50 µg/mL: HFF, read-out: % Parasite inhibition (mean ± s.d.); for IC50: read-out: IC50 (anti-toxoplasmosis activity). The procedure: Briefly, HFF cells were seeded into 96-well plates (1 × 10^4 cells/well) and cultured for 48 h. Expressing green fluorescent protein (GFP) type I strain RH (RH-GFP) tachyzoites (Nishikawa et al. [2003]) were added to the wells (5 × 10^4 tachyzoites/well). After a 4-h incubation, extracellular parasites were removed by washing. Then, chemical compounds at a final concentration of 50 µg/mL were added. […] After a 72-h incubation, the fluorescence intensity of RH-GFP was measured to determine the parasite growth. Compounds with parasite inhibition ≥ 80% were further screened for dose–response effects at final concentrations of 3.125 µg/mL, 6.25 µg/mL, 12.5 µg/mL, 25 µg/mL and 50 µg/mL.

Data set [4] deals with Toxoplasma gondii RH-GFP tachyzoites. The format is cell-based. Conditions: for Activity against extracellular and intracellular parasites: invasion and replication tests, FJS-302 10 µg/mL, FJS-303 and FJS-403 12.5 µg/mL, SFZ 1 mg/mL; for Infection rate (SAG1-positive Vero cells per 100 Vero cells): non-treated 11.3% ± 0.6%. The protocol:
Vero cells were seeded on 12-well plates as described here, and purified RH-GFP tachyzoites were treated with FJS-302, FJS-303, FJS-403 or FJS-INH for 1 h at 37 °C. Then treated parasites were added to Vero cells in a 12-well plate (2 × 10^5 tachyzoites per well). At 2 h postinfection, the extracellular parasites were removed by washing, and the infected Vero cells were further incubated for 24 h at 37 °C in a 5% CO2 incubator. After incubation, IFAT was conducted as described here to evaluate the effects of the chemical compounds on parasite invasion. The infection rates were calculated as follows: [number of SAG1-positive Vero cells]/[100 randomly selected Vero cells]×100 [Eqn 1]
In addition, at least 10 fields were observed per group to measure the average number of parasites per field.

Data set [5] deals with human foreskin fibroblasts (HFF) cells. Kind of data set: Cytotoxicity analysis on HFF cells (CCK-8). The format is cell-based. Conditions: for Effect on host cell viability / growth: HFF cells, 0-100 µg/mL, 24 h. The protocol: as §2
Data set [6] deals with Toxoplasma gondii PruΔku80Δhxgprt. Kind of data set: Bradyzoite differentiation assay (Vero cells, IFAT). Type of data set: cell-based. The conditions noted are these: 48 h; for Antitachyzoite activity: PruΔku80Δhxgprt; for Bradyzoite number: compounds 50 µg/mL (Figure 4 legend). The protocol:
Vero cells were plated in 12-well plates at a density of 1 × 10^5 cells per well and incubated for 24 h at 37 °C in a 5% CO2 atmosphere. Then, purified PruΔku80Δhxgprt tachyzoites were added to Vero cells at 1 mL/well (parasites per host cell ratio = 1:1). Two hours postinfection, chemical compounds were added in EMEM supplemented with 8% FBS. Indirect fluorescent antibody test was conducted after a 48-h incubation. Tachyzoites were stained by using anti-SAG1 mouse polyclonal antibody (Guo et al. [2019]), and bradyzoites were detected by using anti-GFP rabbit polyclonal antibody (Medical & Biological Laboratories CO., LDT, Japan). Secondary antibody Alexa Fluor 594-conjugated goat anti-mouse IgG (Invitrogen, United States) diluted 1:1000 and Alexa Fluor 488-conjugated goat anti-Rabbit IgG (Invitrogen, United States) diluted 1:1000 were used. Five fields per well were observed by using an All-in-one Fluorescence Microscope (BZ-9000, Keyence, Japan), and the percentage of bradyzoites was calculated.

The test system of data set [7] is Vero cells. Kind of data set: Vero cell viability. The format is cell-based. The conditions noted are these: sulphadiazine at 1 mg/mL.
Excerpt: as §1

The test system of data set [8] is Toxoplasma gondii RH strain. Conditions: ref De Oliveira et al. [2009]; cited from earlier work.
Data set [9] has as its system HFF cells. The conditions noted are these: 200 µg/mL of SFZ; ref De Oliveira et al. [2009]; cited from earlier work.
Where [10] appears, read: 72 h, test compounds at 50 µg/mL, 72 h, RH-GFP-infected HFF cells.
The mark [11] stands for this setting: RH-GFP-infected HFF cells, 72 h, 3.125-50 µg/mL.
Where [12] appears, read: test compounds at 50 µg/mL, 72 h, RH-GFP-infected HFF cells.
Where [13] appears, read: parasites pretreated with 12.5 µg/mL.
The mark [14] stands for this setting: parasites pretreated with 12.5 µg/mL for 1 h.

As a reminder, the viability is a read-out of living cells in per cent, often relative to untreated cells. The term inhibition denotes the percentage by which the read-out fell short of the control. For the compound `CCCCCCCCCCc1cn(Cc2ccc(Br)cc2)nn1` [FJS-104], the viability at 100 µg/mL in data set [1] came to 103%. The viability at 24 h, 50 µg/mL in [2] is 100%. The inhibition at 50 µg/mL in data set [3] (setting [10]) was 62.2 ± 6%.
The matching figures for `Brc1ccc(Cn2cc(CSc3ccccc3)nn2)cc1` [FJS-105]: 103%, 100% and 60.5 ± 6.1%.
Consider `CCCCc1cn(Cc2ccccc2)nn1` [FJS-201], for which the viability at 100 µg/mL in data set [1] turned out to be 99.3%. Also, the viability at 24 h, 50 µg/mL in [2] was 100%. The inhibition at 50 µg/mL in data set [3] (setting [10]) was found to be 64.6 ± 6.8%.
The matching figures for `c1ccc(Cn2cc(CSc3ccccc3)nn2)cc1` [FJS-205]: 101%, 100% and 60.2 ± 5.1%.
The corresponding values for `CCCCc1cn(Cc2ccc(C)cc2)nn1` [FJS-301] are 85.4%, 96.2% and 57.7 ± 3%.
The IC50 is the concentration needed to halve the response being measured. Consider `CCCCCCc1cn(Cc2ccc(C)cc2)nn1` [FJS-302], for which the viability at 100 µg/mL in data set [1] worked out at 86.1%. Besides, the “Activity against extracellular and intracellular parasites” value in data set [4] is “effective against extra- and intracellular parasites”. The “Number of parasites per field after pretreatment” value (“Number of parasites per field” below) in data set [4] (parasites pretreated with 10 µg/mL) is “significantly reduced”. In [4] (parasites pretreated with 10 µg/mL for 1 h), the “Infection rate (SAG1-positive Vero cells per 100 Vero cells)” value is 6.2% ± 0.5%. In data set [2], the viability at 24 h, 50 µg/mL came out at 85%. Further, in data set [5], the “Effect on host cell viability / growth” value is “no significant suppression on host cell growth”. In addition, in [6], the Antitachyzoite activity result is reported as “significant antitachyzoite activity” and the “Bradyzoite number” value is given as “did not increase the bradyzoite number”. In addition, in [3] (setting [10]), the inhibition at 50 µg/mL is > 80%. For the same compound, the IC50 in data set [3] (setting [11]) worked out at 5.6 µg/mL (≈ 21.8 µM). Besides, the “% Parasite inhibition (mean ± s.d.)” value in data set [3] (setting [12]) amounted to 95.9 ± 4.6%.
As to `CCCCCCCCc1cn(Cc2ccc(C)cc2)nn1` [FJS-303], the viability at 100 µg/mL in data set [1] amounted to 101%. For the same compound, the “Activity against extracellular and intracellular parasites” value in data set [4] was “effective against extra- and intracellular parasites”. In addition, in data set [4] (setting [13]), the “Number of parasites per field” value is recorded as “significantly reduced”. Further, the “Infection rate (SAG1-positive Vero cells per 100 Vero cells)” value in data set [4] (setting [14]) is 5.8% ± 0.5%. Also, the viability at 24 h, 50 µg/mL in data set [2] came to 110%. Besides, in data set [5], the “Effect on host cell viability / growth” value was “no significant suppression on host cell growth”. For the same compound, in data set [6], the Antitachyzoite activity entry was “significant antitachyzoite activity” and the “Bradyzoite number” value is reported as “did not increase the bradyzoite number”. Moreover, in [3] (setting [10]), the inhibition at 50 µg/mL is > 80%. In addition, the IC50 in [3] (setting [11]) was determined as 6.8 µg/mL (≈ 23.8 µM). Also, the “% Parasite inhibition (mean ± s.d.)” value in data set [3] (setting [12]) is on record as 96.3 ± 3.9%.
Turning to `CCCCCCCCc1cn(Cc2ccc(C(F)(F)F)cc2)nn1` [FJS-403], the viability at 100 µg/mL in data set [1] amounted to 102%. The “Activity against extracellular and intracellular parasites” value in data set [4] was “effective against extra- and intracellular parasites”. Moreover, in data set [4] (setting [13]), the “Number of parasites per field” value was “significantly reduced”. In data set [4] (setting [14]), the “Infection rate (SAG1-positive Vero cells per 100 Vero cells)” value is 5.2% ± 0.7%. For the same compound, in data set [2], the viability at 24 h, 50 µg/mL is 103%. Besides, in data set [5], the “Effect on host cell viability / growth” value was “no significant suppression on host cell growth”. Also, in data set [6], the Antitachyzoite activity result was “significant antitachyzoite activity” and the “Bradyzoite number” value is “did not increase the bradyzoite number”. In addition, the inhibition at 50 µg/mL in [3] (setting [10]) was > 80%. Moreover, the IC50 in data set [3] (setting [11]) worked out at 7 µg/mL (≈ 20.6 µM). For the same compound, the “% Parasite inhibition (mean ± s.d.)” value in [3] (setting [12]) is reported as 91.5 ± 1.7%.
In the case of `CCCCCCCCCCc1cn(Cc2ccc(C(F)(F)F)cc2)nn1` [FJS-404], the viability at 24 h, 50 µg/mL in data set [2] turned out to be 100%. Besides, the inhibition at 50 µg/mL in data set [3] (setting [10]) came out at 64.5 ± 1.8%.
For the compound `FC(F)(F)c1ccc(Cn2cc(CSc3ccccc3)nn2)cc1` [FJS-405], in [1], the viability at 100 µg/mL is 103%. Further, the viability at 24 h, 50 µg/mL in data set [2] was 100%. Moreover, in data set [3] (setting [10]), the inhibition at 50 µg/mL stood at 35 ± 5%.
Turning to `NNC(=O)c1ccncc1` [FJS-INH, isoniazid, reference compound], in data set [1], the viability at 100 µg/mL worked out at 98%. The “Infection rate (SAG1-positive Vero cells per 100 Vero cells)” value in data set [4] (parasites pretreated with 50 µg/mL for 1 h) is on record as 10.7% ± 0.5%. In addition, the viability at 24 h, 50 µg/mL in data set [2] was found to be 118%. In addition, in data set [5], the “Effect on host cell viability / growth” value is given as “no significant suppression on host cell growth”. The Antitachyzoite activity result in [6] is listed as “significant antitachyzoite activity”. The “Potency relative to the leading BnTz derivative” value in [3] (T. gondii growth inhibition, from IC50) is reported as “threefold less potent”. Also, the inhibition at 50 µg/mL in data set [3] (setting [10]) was > 80%. In data set [3] (setting [11]), the IC50 was determined as 19.8 µg/mL (≈ 144 µM). Also, in data set [3] (setting [12]), the “% Parasite inhibition (mean ± s.d.)” value turned out to be 87.2 ± 4.6%.
For the compound `Nc1ccc(S(=O)(=O)Nc2ncccn2)cc1` [SFZ, sulphadiazine, reference compound], in [7], the “% viability Vero” value came to 92.11%. For the same compound, the “Activity against extracellular and intracellular parasites” value in [4] is given as “affected only intracellular parasite”. Besides, the “Infection rate (SAG1-positive Vero cells per 100 Vero cells)” value in [4] (parasites pretreated with 1 mg/mL for 1 h) is reported as 11.7% ± 1.3%. Besides, the “% viability HFF” value in data set [5] (sulphadiazine at 1 mg/mL) amounted to 105.19%. Also, the “Bradyzoite number (GFP-positive parasitophorous vacuoles per field)” value in [6] (SFZ 1 mg/mL, no treatment 6.5 ± 1.5) was determined as 23.7 ± 6.0. In addition, the “Bradyzoite rate (bradyzoite differentiation)” value in data set [6] (SFZ 1 mg/mL, no treatment 8.2% ± 1.9%) was 46.6% ± 7.9%. The “IC50 of SFZ on RH strain” value in data set [8] is on record as 70 µg/mL. In data set [3] (setting [11]), the “IC50 (anti-toxoplasmosis activity)” value was found to be 59.5 µg/mL (≈ 238 µM). Further, the “% Parasite inhibition (mean ± s.d.)” value in [3] (sulphadiazine at 1 mg/mL, 72 h, RH-GFP-infected HFF cells) was determined as 73.7 ± 4.6%. Also, the “Decrease of viability of HFF cells” value in data set [9] was 28%.

Source of the values: PMC8252180, “In vitro anti-Toxoplasma gondii efficacy of synthesised benzyltriazole derivatives” (The Onderstepoort Journal of Veterinary Research, 2021).
